Experiments:
[1] = tested on: patient suffering from ADHD; assay: Example 1: patient suffering from ADHD treated with and without an appetite stimulant (appetite, blood glucose, attentiveness by CGI-S and CGI-I); format: in vivo, human
From the text: A patient suffering from ADHD is prescribed and administered an amphetamine to treat ADHD. The patient takes the amphetamine once a day in the morning or afternoon. […] As a result, the glucose level measured in the blood increases as shown in FIG. 1 and the patient's attentiveness recovers as measured by CGI-S and CGI-I. By taking the appetite stimulant during the time when the patient was awake, the patient increased their caloric intake during times when the patient needed to maintain their attentiveness in order to have reasonable cognition and/or social behaviour.

[2] = tested on: patients suffering from ADHD; assay: Clinical Global Impression-Severity scale (CGI-S), Patients A-H; format: in vivo, human
Description: In an embodiment, attentiveness is measured using the Clinical Global Impression rating scales to measure symptom severity, treatment response and the efficacy of treatments in treatment studies of patients with mental disorders (Guy, W., 1976). In an embodiment, attentiveness is measure using the Clinical Global Impression-Severity scale (“CGI-S”). In an embodiment, CGI-S is a 7-point scale that requires the clinician to rate the severity of the patient's illness at the time of assessment, relative to the clinician's past experience with patients who have the same diagnosis. Considering total clinical experience, a patient is assessed on severity of mental illness at the time of rating 1, normal, not at all ill; 2, borderline mentally ill; 3, mildly ill; 4, moderately ill; 5, markedly ill; 6, severely ill; or 7, extremely ill. In an embodiment, attentiveness is measured using the Clinical Global Impression-Improvement scale (“CGI-I”). […] In an embodiment, attentiveness is measured using the Clinical Global Impression-Efficacy Index (“CGI-E”).
(§1) The age range of the patients was from 6-15 years of age, with a mean age at the start of treatment for ADHD of 8.4 years of age. The mean age at the start of the combination treatment wherein the patient was administered an amphetamine or methylphenidate and an appetite stimulant was 10.3 years of age. The mean treatment period for the eight patients was 1,108 days with a mean of 2.55 ADHD medication changes during the treatment period. Attentiveness in the eight patients was measured using CGI-S and CGI-I. Patients weight and height velocity were measured to identify a difference in weight and height gain prior to and after addition of an appetite stimulant to the treatment for ADHD. Weight velocity was calculated by taking three time points, time 0 upon initiation of medication to treat ADHD, time 1 addition of an appetite stimulant, time 2 the last data point after initiation of combination treatment. The formula to calculate weight velocity for stimulant alone is (weightT1−weight T0)/days from Time 0 to time 1. The formula to calculate weight velocity for combination treatment is (weightT2−weight T1)/days from time 1 to time 2.

[3] = cited from earlier work
[4] = cited from earlier work; remark: listed apart in the source
[5] = Examples 3-11: weight and height (velocity, percentile curve, course) of ADHD Patients A-H; format: in vivo, human
Description: In an embodiment, a therapeutically effective amount of a therapeutic compound disclosed herein increases the weight or height of an individual is determined by an increase in the individual's weight or height velocity as compared to an individual nor receiving a therapeutic compound for appetite reduction. In an embodiment, weight and/or height velocity can be calculated by taking measurements of height and/or weight of an individual over a period of time and measuring an increase or decrease in an individual's height and/or weight over the period of time. In an embodiment, weight velocity is calculated by taking three time points, time 0 upon initiation of medication to treat ADHD, time 1 addition of an appetite stimulant, time 2 the last data point after initiation of combination treatment. In an embodiment, a formula to calculate weight and height velocity for stimulant alone is (weightT1−weight T0)/days from Time 0 to time 1. In an embodiment, a formula to calculate weight velocity for combination treatment is (weightT2−weight T1)/days from time 1 to time 2. In an embodiment, to evaluate whether weight velocity increased after addition of an appetite stimulant, the weight velocity of time 0 to time 1 is compared to the weight velocity from time 1 to time 2. In an embodiment, height velocity is calculated by taking three time points, time 0 upon initiation of medication to treat ADHD, time 1 addition of an appetite stimulant, time 2 the last data point after initiation of combination treatment. The formula to calculate height velocity for stimulant alone is (weightT1−weight T0)/days from Time 0 to time 1. The formula to calculate height velocity for combination treatment is (weightT2−weight T1)/days from time 1 to time 2. In an embodiment, to evaluate whether height velocity increased after addition of an appetite stimulant, the height velocity of time 0 to time 1 is compared to the height velocity from time 1 to time 2.
Eight patients, identified as patients A-H, that came in suffering from ADHD were treated for ADHD. […] Each patient was then prescribed an appetite simulant to be taken along with the amphetamine or methylphenidate. The patients' weight, height and attentiveness were then followed during the course of treatment.
as §1

[6] = Patient A, Periactin 4 mg b.i.d. added to Concerta from day 661, FIG. 4
[7] = Patient G, Focalin XR 15 mg and Periactin 4 mg b.i.d. from day 546, FIG. 16

In the case of CN1CCC(=C2c3ccccc3C=Cc3ccccc32)CC1.Cl [Periactin, 4-(5H-dibenzo[a,d]cyclohepten-5-ylidene)-1-methylpiperidine hydrochloride], the “attentiveness as measured by CGI-S and CGI-I” value ([1]; amphetamine and Cyproheptadine once a day) is reported as “recovers”, the appetite ([1]; amphetamine and Cyproheptadine once a day in the morning or afternoon) is reported as “resumes” and the “glucose level measured in the blood” value ([1]; amphetamine and Cyproheptadine once a day, FIG. 1) is reported as “increases”. The CGI-S score ([2]; Patient A, Periactin 4 mg b.i.d. added to Concerta, FIG. 5) was 3, the CGI-S score ([2]; Patient B, Focalin XR 15 mg and Periactin 4 mg b.i.d. (remained), FIG. 7) was 3 and the CGI-S score ([2]; Patient B, Focalin XR raised to 30 mg at day 1279 with Periactin, FIG. 7) was 2. It also gave a CGI-S score ([2]; Patient C, Concerta 36 mg and Periactin 4 mg b.i.d., FIG. 9) of 4, a CGI-S score ([2]; Patient D, Concerta 18 mg and Periactin 2 mg in the morning, FIG. 11) of 5 and a CGI-S score ([2]; Patient D, Concerta increased to 27 mg with Periactin, FIG. 11) of 4. It also gave a CGI-S score ([2]; Patient E, Focalin XR 20 mg and Periactin 4 mg in the morning) of 4, a CGI-S score ([2]; Patient E, Periactin dosed b.i.d. with Focalin XR) of 3 and a CGI-S score ([2]; Patient G, Focalin XR 15 mg and Periactin 4 mg b.i.d., FIG. 17) of 3. For the same compound, the “CGI-S score versus prior examination” value ([2]; Patient H, Vvyanase 40 mg and Periactin 2 mg b.i.d., day 200, FIG. 19) was “had not changed”, the “lowering of the CGI-S of a patient by addition of the appetite stimulant” value ([2]; Patients A-H, versus same patient prior to appetite stimulant, FIG. 20, 21) was no less than 1 and the “effect in children suffering from ADHD (anecdotal evidence)” value ([3]; ADHD drug (amphetamine or methylphenidate) plus 4-8 mg cyproheptadine at night (Daviss 2004)) was “weight gain and excessive sleep”. For the same compound, the “effect on weight in studies” value ([3]; non-human animals or humans (Orthen-Gambill 1988)) was “weight gain”, the side effects ([3]; oral monotherapy for allergy) was “weight gain and drowsiness” and the “time to reach peak plasma levels” value ([4]; after administration) was 1 to 3 h. For the same compound, the half-life ([4]; in vivo) was 8 h, the height course [5, 6] was “increase in height began to accelerate” and the weight course [5, 6] was “began to gain weight”. For the same compound, the weight course ([5]; Patient B, Focalin XR 15 mg and Periactin 4 mg b.i.d. from day 865, FIG. 6) was “began to gain weight”, the weight course ([5]; Patient B, Focalin XR 30 mg with Periactin, FIG. 6) was “continued to increase” and the weight course ([5]; Patient C, Concerta 36 mg and Periactin 4 mg b.i.d. from day 350, FIG. 8) was “began to gain weight”. The weight course ([5]; Patient D, Concerta 18 mg and Periactin 2 mg in the morning from day 23, FIG. 10) was “began to gain weight at an accelerated pace”, the weight course ([5]; Patient D, Concerta increased to 27 mg with Periactin) was “only a slight decrease in the ability of Patient D to continue to gain weight” and the height course ([5]; Patient D, combination of Concerta and Periactin, lagged initiation, FIG. 10) was “increased the growth rate”. The weight course ([5]; Patient E, Focalin XR 20 mg and Periactin 4 mg in the morning, FIG. 12) was “began to gain weight at an accelerated pace”, the “pace of weight gain” value ([5]; Patient E, Periactin administered b.i.d. from day 836 with Focalin XR) was “increased” and the weight course ([5]; Patient F, Daytrana patch 30 mg and Periactin 2 mg b.i.d. from day 1547, FIG. 14) was “began to gain weight at an accelerated pace”. The “pace of weight gain” value ([5]; Patient F, Periactin increased to 4 mg b.i.d. on day 1950 with Daytrana patch) was “increased”, the height course [5, 7] was “began to gain height at an accelerated pace” and the weight course [5, 7] was “continued to gain weight at a good pace”. The weight course ([5]; Patient H, Vvyanase 40 mg and Periactin 2 mg b.i.d. from day 109, FIG. 18) was “began to gain weight” and the “appetite when the dose of the ADHD drug was increased” value ([5]; individual patient of the example (B, D, E, F) on Periactin) was “without a concomitant loss of appetite”.
